pIC50, pKi: −log10 of the molar value.
What was measured:
K562 = test: cells; details: Homo sapiens, K562, 72 h
[1] = molecular target: T1, Son of sevenless homolog 1 (Homo sapiens, UniProt Q07889); test: Inhibition of SOS1 in human Calu-1 cells assessed as reduction in pERK level incubated for 24 hrs by HTRF analysis; format: cell-based
T1 sequence (Q07889 whole entry): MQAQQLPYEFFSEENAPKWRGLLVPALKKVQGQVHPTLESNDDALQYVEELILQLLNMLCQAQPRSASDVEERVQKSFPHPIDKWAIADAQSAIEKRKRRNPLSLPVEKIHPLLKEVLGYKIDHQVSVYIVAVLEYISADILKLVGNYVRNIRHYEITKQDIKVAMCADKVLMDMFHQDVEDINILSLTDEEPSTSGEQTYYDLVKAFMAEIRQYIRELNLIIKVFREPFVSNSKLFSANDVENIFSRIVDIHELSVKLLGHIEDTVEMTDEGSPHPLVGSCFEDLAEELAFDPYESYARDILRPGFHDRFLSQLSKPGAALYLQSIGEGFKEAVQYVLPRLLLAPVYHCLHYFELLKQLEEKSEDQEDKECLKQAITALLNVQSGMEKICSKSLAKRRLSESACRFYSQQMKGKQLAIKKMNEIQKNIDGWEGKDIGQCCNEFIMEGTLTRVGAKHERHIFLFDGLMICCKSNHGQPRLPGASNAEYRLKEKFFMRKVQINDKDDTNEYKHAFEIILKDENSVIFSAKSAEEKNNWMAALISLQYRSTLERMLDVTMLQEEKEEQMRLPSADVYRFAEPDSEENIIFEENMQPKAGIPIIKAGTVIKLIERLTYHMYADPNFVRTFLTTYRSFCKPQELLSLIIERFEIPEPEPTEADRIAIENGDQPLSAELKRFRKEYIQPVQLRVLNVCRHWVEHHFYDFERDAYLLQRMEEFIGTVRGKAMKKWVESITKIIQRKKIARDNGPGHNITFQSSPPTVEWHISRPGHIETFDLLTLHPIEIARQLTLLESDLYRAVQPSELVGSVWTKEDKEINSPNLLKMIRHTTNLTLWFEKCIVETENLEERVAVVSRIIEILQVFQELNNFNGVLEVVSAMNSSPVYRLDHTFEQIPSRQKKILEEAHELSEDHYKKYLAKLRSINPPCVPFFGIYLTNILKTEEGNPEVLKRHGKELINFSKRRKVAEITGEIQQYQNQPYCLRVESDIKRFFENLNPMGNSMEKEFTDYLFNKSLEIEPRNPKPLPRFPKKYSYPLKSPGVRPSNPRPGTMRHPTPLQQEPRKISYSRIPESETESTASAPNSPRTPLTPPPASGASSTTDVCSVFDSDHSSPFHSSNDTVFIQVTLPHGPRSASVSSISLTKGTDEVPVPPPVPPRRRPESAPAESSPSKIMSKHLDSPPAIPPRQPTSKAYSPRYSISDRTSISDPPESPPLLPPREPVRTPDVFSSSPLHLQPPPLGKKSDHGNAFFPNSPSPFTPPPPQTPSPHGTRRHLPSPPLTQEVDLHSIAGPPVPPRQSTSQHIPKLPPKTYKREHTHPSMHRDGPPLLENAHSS

[2] = Half life in mouse; format: ADME, organism-based; details: in vivo
MIA PaCa-2 [3] = test: Antiproliferative activity against human MIA PaCa-2 cells assessed as reduction in cell growth measured after 48 hrs by MTT assay; format: functional, cell-based; details: MIA PaCa-2, 48 h
[4] = Intrinsic clearance in mouse liver microsomes; format: ADME, Microsome; details: read-out: CLH
MIA PaCa-2 [5] = test: Antitumor activity against human MIA PaCa-2 cells xenografted in mouse model assessed as tumor growth inhibition at 50 mg/kg, po relative to control; format: functional; details: read-out: TGI
[6] = molecular target: von Hippel-Lindau disease tumor suppressor/Son of sevenless homolog 1 (Homo sapiens, UniProt Q07889+P40337, G13D); test: PROTAC activity at VHL/SOS1 in human NCI-H358 cells harboring KRAS G13D mutant assessed as induction of SOS1 degradation incubated for 24 hrs by immunoblotting analysis; format: cell-based
von Hippel-Lindau disease tumor suppressor/Son of sevenless homolog 1 (Homo sapiens, UniProt Q07889+P40337, G13D), sequence (P40337 whole entry, looked up, stated change not applied, one chain of several): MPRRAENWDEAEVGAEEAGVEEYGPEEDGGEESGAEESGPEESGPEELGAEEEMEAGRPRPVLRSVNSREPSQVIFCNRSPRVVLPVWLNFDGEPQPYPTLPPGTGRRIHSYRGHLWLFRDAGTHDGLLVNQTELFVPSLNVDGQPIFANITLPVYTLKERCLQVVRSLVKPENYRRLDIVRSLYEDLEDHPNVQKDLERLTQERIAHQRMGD

[7] = Half life in mouse at 10 mg/kg, ip by LC-MS analysis; format: ADME, organism-based; details: in vivo
CAL-62 = test: Antiproliferative activity against human CAL-62 cells harboring KRAS G12R mutant assessed as inhibition of cell proliferation incubated for 7 days by CellTiterGlo-3D proliferation assay; format: functional, cell-based; details: CAL-62, 168 h
[8] = molecular target: von Hippel-Lindau disease tumor suppressor/Son of sevenless homolog 1 (Homo sapiens, UniProt Q07889+P40337, G12V); test: PROTAC activity at VHL/SOS1 in human NCI-H358 cells harboring KRAS G12V mutant assessed as induction of SOS1 degradation incubated for 24 hrs by immunoblotting analysis; format: cell-based
von Hippel-Lindau disease tumor suppressor/Son of sevenless homolog 1 (Homo sapiens, UniProt Q07889+P40337, G12V), sequence (P40337 whole entry, looked up, stated change not applied, one chain of several): as above

[9] = molecular target: von Hippel-Lindau disease tumor suppressor/Son of sevenless homolog 1 (Homo sapiens, UniProt Q07889+P40337, G12D); test: PROTAC activity at VHL/SOS1 in human NCI-H358 cells harboring KRAS […] mutant assessed as induction of SOS1 degradation incubated for 24 hrs by immunoblotting analysis; format: cell-based
von Hippel-Lindau disease tumor suppressor/Son of sevenless homolog 1 (Homo sapiens, UniProt Q07889+P40337, G12D), sequence (P40337 whole entry, looked up, stated change not applied, one chain of several): as above

NCI-H460 = test: Antiproliferative activity against human NCI-H460 cells harboring KRAS […] mutant assessed as inhibition of cell proliferation incubated for 7 days by CellTiterGlo-3D proliferation assay; format: functional, cell-based; details: NCI-H460, 168 h
[10] = molecular target: von Hippel-Lindau disease tumor suppressor/Son of sevenless homolog 1 (Homo sapiens, UniProt Q07889+P40337, G12S); test: PROTAC activity at VHL/SOS1 in human NCI-H358 cells harboring KRAS G12S mutant assessed as induction of SOS1 degradation incubated for 24 hrs by immunoblotting analysis; format: cell-based
von Hippel-Lindau disease tumor suppressor/Son of sevenless homolog 1 (Homo sapiens, UniProt Q07889+P40337, G12S), sequence (P40337 whole entry, looked up, stated change not applied, one chain of several): as above

NCI-H358 [11] = test: Antitumor activity against human NCI-H358 cells harboring KRAS G12V mutant xenografted in mouse model assessed as tumor growth inhibition at 10 mg/kg, ip administered once daily for 3 weeks relative to control; format: functional; details: NCI-H358, 504 h, read-out: TGI
[12] = molecular target: von Hippel-Lindau disease tumor suppressor/Son of sevenless homolog 1 (Homo sapiens, UniProt Q07889+P40337, G12R); test: PROTAC activity at VHL/SOS1 in human NCI-H358 cells harboring KRAS G12R mutant assessed as induction of SOS1 degradation incubated for 24 hrs by immunoblotting analysis; format: cell-based
von Hippel-Lindau disease tumor suppressor/Son of sevenless homolog 1 (Homo sapiens, UniProt Q07889+P40337, G12R), sequence (P40337 whole entry, looked up, stated change not applied, one chain of several): as above

[13] = AUC in mouse at 10 mg/kg, ip by LC-MS analysis; format: ADME, organism-based; details: in vivo
[14] = molecular target: von Hippel-Lindau disease tumor suppressor/Son of sevenless homolog 1 (Homo sapiens, UniProt Q07889+P40337); test: PROTAC activity at VHL/SOS1 in human NCI-H358 cells assessed as induction of SOS1 protein degradation incubated for 24 hrs by Immunoblot analysis; format: cell-based
von Hippel-Lindau disease tumor suppressor/Son of sevenless homolog 1 (Homo sapiens, UniProt Q07889+P40337), sequence (P40337 whole entry, one chain of several): as the sequence (P40337 whole entry, looked up, stated change not applied, one chain of several) above

NCI-H358 [15] = test: Antitumor activity against human NCI-H358 cells harboring KRAS […] mutant xenografted in mouse model assessed as tumor growth inhibition at 10 mg/kg, ip administered once daily for 3 weeks relative to control; format: functional; details: NCI-H358, 504 h, read-out: TGI
[16] = molecular target: von Hippel-Lindau disease tumor suppressor/Son of sevenless homolog 1 (Homo sapiens, UniProt Q07889+P40337, G12C); test: PROTAC activity at VHL/SOS1 in human NCI-H358 cells harboring KRAS G12C mutant assessed as induction of SOS1 degradation incubated for 24 hrs by immunoblotting analysis; format: cell-based
von Hippel-Lindau disease tumor suppressor/Son of sevenless homolog 1 (Homo sapiens, UniProt Q07889+P40337, G12C), sequence (P40337 whole entry, looked up, stated change not applied, one chain of several): as above

[17] = molecular target: Epidermal growth factor receptor (Homo sapiens, UniProt P00533); test: Inhibition of EGFR (unknown origin)
Epidermal growth factor receptor, sequence (P00533 whole entry): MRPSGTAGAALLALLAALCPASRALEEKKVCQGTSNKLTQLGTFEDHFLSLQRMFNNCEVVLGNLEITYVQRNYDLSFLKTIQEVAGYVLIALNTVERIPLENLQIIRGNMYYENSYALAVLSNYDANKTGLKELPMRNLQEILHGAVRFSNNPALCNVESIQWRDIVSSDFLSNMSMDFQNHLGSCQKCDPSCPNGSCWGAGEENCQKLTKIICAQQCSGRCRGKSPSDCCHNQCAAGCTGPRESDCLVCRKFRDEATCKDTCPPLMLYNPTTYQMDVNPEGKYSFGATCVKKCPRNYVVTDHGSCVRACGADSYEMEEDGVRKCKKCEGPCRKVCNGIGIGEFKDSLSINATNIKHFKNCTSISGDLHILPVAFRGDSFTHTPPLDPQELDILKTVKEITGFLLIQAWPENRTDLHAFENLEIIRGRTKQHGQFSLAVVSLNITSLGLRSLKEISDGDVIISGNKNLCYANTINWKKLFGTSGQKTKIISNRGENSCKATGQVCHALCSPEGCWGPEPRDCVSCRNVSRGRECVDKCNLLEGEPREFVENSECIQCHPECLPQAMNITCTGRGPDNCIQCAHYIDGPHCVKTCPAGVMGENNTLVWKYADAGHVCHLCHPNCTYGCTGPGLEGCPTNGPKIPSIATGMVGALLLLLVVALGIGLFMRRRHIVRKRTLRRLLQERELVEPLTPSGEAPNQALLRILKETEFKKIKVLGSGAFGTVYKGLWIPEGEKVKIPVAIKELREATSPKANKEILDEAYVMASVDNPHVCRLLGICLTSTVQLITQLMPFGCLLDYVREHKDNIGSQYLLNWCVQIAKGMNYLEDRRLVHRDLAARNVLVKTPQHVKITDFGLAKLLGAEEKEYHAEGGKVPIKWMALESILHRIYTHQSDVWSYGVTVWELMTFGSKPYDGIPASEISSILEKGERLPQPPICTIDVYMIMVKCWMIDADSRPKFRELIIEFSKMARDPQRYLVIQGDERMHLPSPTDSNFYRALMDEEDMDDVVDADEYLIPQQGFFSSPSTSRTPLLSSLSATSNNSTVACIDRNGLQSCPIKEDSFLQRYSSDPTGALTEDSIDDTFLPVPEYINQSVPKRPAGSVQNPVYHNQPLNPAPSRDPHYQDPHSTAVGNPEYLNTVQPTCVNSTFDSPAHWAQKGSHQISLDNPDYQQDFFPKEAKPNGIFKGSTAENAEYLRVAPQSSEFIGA

[18] = molecular target: T1, Son of sevenless homolog 1; test: Binding affinity to SOS1 (unknown origin) assessed as inhibition constant by HTRF method
[19] = Half life in CD-1 mouse at 20 mg/kg, po measured after 24 hrs by LC-MS/MS analysis; format: ADME, organism-based; details: in vivo
[20] = molecular target: T1, Son of sevenless homolog 1; test: Inhibition of SOS1 (unknown origin) by HTRF assay
MIA PaCa-2 [21] = test: Antitumor activity against human MIA PaCa-2 cells xenografted in CD-1 mouse assessed as tumor inhibition at 20 mg/kg, po BID for 22 days relative to control; format: functional; details: MIA PaCa-2, 528 h, time 22 day, read-out: TGI
[22] = Clearance in CD-1 mouse at 5 mg/kg, ip measured after 24 hrs by LC-MS/MS analysis; format: ADME, organism-based; details: in vivo
[23] = Oral bioavailability in CD-1 mouse at 20 mg/kg measured upto 24 hrs by LC/MS/MS analysis; format: ADME, organism-based; details: in vivo
MIA PaCa-2 [24] = test: Antiproliferative activity against human MIA PaCa-2 cells harboring KRAS G12C mutant assessed as reduction in cell viability incubated for 72 hrs by MTT assay; format: functional, cell-based; details: MIA PaCa-2, 72 h
MIA PaCa-2 [25] = test: Antitumor activity against human MIA PaCa-2 cells xenografted in CD-1 mouse assessed as tumor growth inhibition at 20 mg/kg BID for 22 days relative to control; format: functional; details: MIA PaCa-2, 528 h, time 22 day, read-out: TGI
MIA PaCa-2 [26] = test: Antitumor activity against human MIA PaCa-2 cells xenografted in CD-1 mouse assessed as in tumor growth inhibition at 20 mg/kg, po BID for 22 days relative to control; format: functional; details: MIA PaCa-2, 528 h, time 22 day, read-out: TGI
[27] = Volume of distribution at steady state in CD-1 mouse at 5 mg/kg, ip measured after 24 hrs by LC-MS/MS analysis; format: ADME, organism-based; details: in vivo

**Q.** With `COc1cc2nc(C)nc(N[C@H](C)c3cc(N)cc(C(F)(F)F)c3)c2cc1O[C@H]1CCOC1` as the compound, how does the pIC50 (K562) read?
**A.** 7.43

**Q.** Which results are given for `Cc1nc(N[C@H](C)c2cccc(C(F)F)c2F)c2cc3c(cc2n1)OC[C@H]1CN(C(=O)C2(C#N)CC2)CCN31`?
**A.** pIC50 [1]: 8.30; half-life [2]: 1.12 h; pIC50 (MIA PaCa-2 [3]): 6.75; CLint scaled [4]: 37.2 mL/min/kg; inhibition in vivo at 50 mg/kg (MIA PaCa-2 [5]): 71%

**Q.** For `COc1cc2nc(C)nc(N[C@H](C)c3cc(N)cc(C(F)(F)F)c3)c2cc1C1CCN(C(=O)CCCCCC(=O)N[C@H](C(=O)N2C[C@H](O)C[C@H]2C(=O)N[C@@H](C)c2ccc(-c3scnc3C)cc2)C(C)(C)C)CC1`, which DC50 [6] is on record?
**A.** 8.41 nM

**Q.** What about the half-life [7] of the same compound?
**A.** 9.69 h

**Q.** And the pIC50 (CAL-62)?
**A.** 8.16

**Q.** And the DC50 [8]?
**A.** 8.41 nM

**Q.** What about the DC50 [9] of the same compound?
**A.** 8.41 nM

**Q.** What about the pIC50 (NCI-H460) of the same compound?
**A.** 8.16

**Q.** What about the DC50 [10] of the same compound?
**A.** 8.41 nM

**Q.** What about the inhibition in vivo at 10 mg/kg (NCI-H358 [11]) of the same compound?
**A.** > 65%

**Q.** And the DC50 [12]?
**A.** 8.41 nM

**Q.** And the AUC [13]?
**A.** 14100 ng·h/mL

**Q.** What about the DC50 [14] of the same compound?
**A.** 15.7 nM

**Q.** What about the inhibition in vivo at 10 mg/kg (NCI-H358 [15]) of the same compound?
**A.** > 65%

**Q.** What about the DC50 [16] of the same compound?
**A.** 8.41 nM

**Q.** What does the source list for `COC(=O)N1CCN2c3cc4c(N[C@H](C)c5cccc(C(F)F)c5F)nnc(C)c4cc3OC[C@H]2C1`?
**A.** pIC50 [17]: < 5.00; pKi [18]: 8.41; half-life [19]: 6.4 h; pIC50 [1]: 8.80; pIC50 [20]: 8.96; inhibition in vivo at 20 mg/kg (MIA PaCa-2 [21]): 104%; CL/F [22]: 1.7 mL/min/kg; bioavailability [23]: 65.8%; pIC50 (MIA PaCa-2 [24]): 7.37; inhibition in vivo at 20 mg/kg (MIA PaCa-2 [25]): 42%; inhibition in vivo at 20 mg/kg (MIA PaCa-2 [26]): 87%; Vdss [27]: 0.33 L/kg
